Test results taken from patent publication US12441768B2, “Compositions and methods for treating endometriosis” (EndoMet Biosciences, Inc., priority 2018, dated 2025).
Where a SMILES comes first, the peptide text is derived from it. [ ]: non-standard residue; d: D form. The star is where a group is joined. ξ: configuration not given here. NMeW = CN[C@@H](Cc1c[nH]c2ccccc12)C(=O)O; Stearoyl = CCCCCCCCCCCCCCCCCC(=O)*; ξIle = CC[C@H](C)C(N)C(=O)O; ξαMeV = CC(C)C(C)(N)C(=O)O; ξαMeS = CC(N)(CO)C(=O)O; Piv = CC(C)(C)C(=O)*; GABA = NCCCC(=O)O; βAla = NCCC(=O)O

Legend:
[1] = system: colon cancer cell line (SW480); format: cell-based; settings: for Cell growth / viability: SW480, peptide added daily, 7 days
Description: (§1) Peptides inhibiting β-catenin cause decreased cell viability in a colon cancer cell line (SW480) and endometriosis lesions excised from a disease animal model. Peptides from libraries described herein are characterized in their effect on cell viability, as measured using a luminescent cell viability assay (Cell Titer-Glo®, Promega, Madison, WI) and expressed as IC50 in Table 5. Peptide inhibitors were tested for their ability to inhibit cellular proliferation across 2 different β-catenin expressing pathogenic cell lines: a colon cancer cell line (SW480) and/or mouse EMS lesion cells derived from mouse model of disease. Both cells lines are naturally known to express high levels of β-catenin. Cell lines were incubated with varying concentrations of peptide concentration and assessed for viability after day 5 and 7 days. The CellTiter-Glo® Luminescent Cell Viability Assay (Promega) is used to detect viable cells. IC50 values are graphed and calculated using Prism software (GraphPad) based on the cell viability readouts. IC50 is used to assess inhibition of cell proliferation by peptide concentration and is used to calculate the inhibitory effect of each peptide across each line. The results are used to assess the therapeutic potency of the peptides. In the SW480 cell line, peptide inhibitors from Family 1 (SEQ ID NO:264) and Family 2 (SEQ ID NO:396) were added daily to the cell growth medium. After 7 days, cell viability was assessed with the Cell-Titer Glo kit (Promega, Madison, WI). […] IC50 was calculated for peptides based on the concentration at which 50% viability was observed (Table 5).

β-catenin = molecular target: T1, β-catenin (Homo sapiens, UniProt P35222); experiment: KD50 measurement using competitive fluorescence polarization (FP) with labelled TCF4; format: binding; settings: fluorescence polarization, β-catenin; for Kd: read-out: β-Cat FP KD
T1 sequence (P35222 1-781): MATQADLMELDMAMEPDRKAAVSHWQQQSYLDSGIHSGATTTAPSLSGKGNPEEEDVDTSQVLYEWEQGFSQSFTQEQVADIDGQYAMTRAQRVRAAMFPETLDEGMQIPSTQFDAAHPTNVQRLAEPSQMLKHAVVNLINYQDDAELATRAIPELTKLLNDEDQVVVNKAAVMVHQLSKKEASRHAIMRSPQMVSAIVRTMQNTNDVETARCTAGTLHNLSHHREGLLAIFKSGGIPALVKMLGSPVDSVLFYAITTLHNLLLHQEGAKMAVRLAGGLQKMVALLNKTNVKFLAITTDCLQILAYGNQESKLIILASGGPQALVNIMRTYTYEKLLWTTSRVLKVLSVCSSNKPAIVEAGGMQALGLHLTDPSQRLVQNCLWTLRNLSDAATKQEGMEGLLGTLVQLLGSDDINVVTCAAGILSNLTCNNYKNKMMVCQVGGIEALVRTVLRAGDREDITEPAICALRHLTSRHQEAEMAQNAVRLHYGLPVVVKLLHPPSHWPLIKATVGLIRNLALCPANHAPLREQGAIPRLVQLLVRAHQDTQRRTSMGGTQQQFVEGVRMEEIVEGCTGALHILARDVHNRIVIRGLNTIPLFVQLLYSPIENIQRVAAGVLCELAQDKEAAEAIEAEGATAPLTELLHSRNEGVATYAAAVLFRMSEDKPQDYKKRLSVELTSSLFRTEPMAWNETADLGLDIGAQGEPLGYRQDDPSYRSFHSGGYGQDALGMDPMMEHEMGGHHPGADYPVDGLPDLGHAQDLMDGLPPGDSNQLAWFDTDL
In short: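 Labelled TCF4 (5 nM) mixed with 100 nM β-catenin at room temperature; inhibitor added as serial dilutions from 10 nM to 30 uM. Polarization read at excitation 470 nm/emission 520 nm; binding displacement lowers polarization. Three independent runs.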

[2] = molecular target: Wnt-responsive promoter (TCF/LEF); experiment: Wnt-dependent luciferase reporter assay; format: cell-based, murine
In short: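 EC50 (uM) derived from inhibition of luminescence in Wnt3a-stimulated murine 3T3 cells expressing luciferase under a TCF/LEF promoter, with peptides added across a concentration range and vehicle as control.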

in vitro = settings: % Viability non-Wnt responsive cells
mouse EMS lesion cells = format: cell-based; settings: mouse EMS lesion cells, peptide added daily 0.024-25 uM, 5 days
Description: as §1

Compound	IC50 [1] [µM]	β-Cat FP Hill slope (β-catenin)	Kd (β-catenin) [µM]	EC50 [2] [µM]	further results
CCCCCCCCCCCCCCCC(=O)N[C@@H](Cc1c[nH]c2ccccc12)C(=O)N(C)[C@@H](Cc1c[nH]c2ccccc12)C(=O)N[C@@H](CCC(=O)O)C(=O)NC(C)(CO)C(=O)N[C@H](C(=O)N[C@@H](CC(C)C)C(=O)N[C@@H](CC(=O)O)C(=O)N[C@@H](CCC(=O)O)C(=O)N[C@@H](Cc1c[nH]cn1)C(=O)NC(C)(C(=O)N[C@@H](CCC(N)=O)C(=O)N[C@@H](CCCNC(=N)N)C(=O)N[C@H](C(=O)N[C@@H](Cc1c[nH]c2ccccc12)C(=O)NCC(=O)O)C(C)C)C(C)C)[C@@H](C)CC (single isomer, unassigned) [SEQ ID NO: 396, Palmitoyl-W-NmeW-E-aMeS-ILDEH-aMeV-QRVWG-COOH]					Cell growth / viability [1]: inhibited cell growth
CC[C@H](C)[C@H](NC(=O)[C@H](CC(C)C)NC(=O)[C@@H](NC(=O)[C@H](Cc1c[nH]c2ccccc12)NC(=O)[C@H](CCSC)N(C)C)[C@@H](C)CC)C(=O)N[C@@H](CO)C(=O)N[C@@H](Cc1ccccc1)C(=O)N[C@@H](Cc1c[nH]c2ccccc12)C(=O)NCC(=O)O [SEQ ID NO: 264] (HELM PEPTIDE1{[CSCC[C@@H](C(=O)[*:2])N(C)C].W.I.L.I.S.F.W.G}$$$$V2.0)					Cell growth / viability [1]: inhibited cell growth
CCCCCCCCCCCCCC(=O)NCC(=O)N[C@@H](Cc1c[nH]c2ccccc12)C(=O)N(C)[C@@H](Cc1c[nH]c2ccccc12)C(=O)N[C@@H](CCC(=O)O)C(=O)N[C@@H](CO)C(=O)N[C@H](C(=O)N[C@@H](CC(C)C)C(=O)N[C@@H](CC(=O)O)C(=O)N[C@@H](CCC(=O)O)C(=O)N[C@@H](Cc1c[nH]cn1)C(=O)N[C@H](C(=O)N[C@@H](CCC(N)=O)C(=O)N[C@@H](CCCNC(=N)N)C(=O)N[C@H](C(=O)N[C@@H](Cc1c[nH]c2ccccc12)C(=O)NCC(=O)O)C(C)C)C(C)C)[C@@H](C)CC [compound 1] (HELM PEPTIDE1{[CCCCCCCCCCCCCC(=O)[*:2]].G.W.[meW].E.S.I.L.D.E.H.V.Q.R.V.W.G}$$$$V2.0)	18.5	0.8	< 0.4		
CC[C@H](C)[C@H]1NC(=O)[C@H](CC(C)C)NC(=O)[C@@H](Cc2ccccc2)NC(=O)[C@H](Cc2c[nH]c3ccccc23)NC(=O)[C@@H](CCSC)NC(=O)CCCCCCCCCCCNC(=O)C[C@@H](C(=O)O)NC(=O)[C@H](Cc2c[nH]c3ccccc23)NC(=O)[C@@H](C)NC(=O)[C@@H](CS)NC1=O [compound 193] (HELM PEPTIDE1{[O=C(CCCCCCCCCCCN[*:1])[*:2]].[dM].W.[dF].L.[CC[C@H](C)[C@@H](N[*:1])C(=O)[*:2]].[dC].[dA].W.D}$PEPTIDE1,PEPTIDE1,1:R1-10:R3$$$V2.0)		2.34	0.4 to 1	< 7.5	viability (in vitro): 96.6%
CC[C@H](C)C(NC(=O)[C@H](CC(C)C)NC(=O)C(NC(=O)[C@H](Cc1c[nH]c2ccccc12)NC(=O)[C@H](CCSC)NC(=O)C(C)(C)C)[C@@H](C)CC)C(=O)N[C@@H](CO)C(=O)N[C@@H](Cc1ccccc1)C(=O)N[C@@H](Cc1c[nH]c2ccccc12)C(=O)NCC(=O)O (stereo partly drawn) [compound 224] (Piv-MW[ξIle]L[ξIle]SFWG-OH)		1.04	< 0.4	< 7.5	viability (in vitro): 95.7%
CCCCCCCCCCCCCCCCCC(=O)N[C@@H](Cc1c[nH]c2ccccc12)C(=O)N(C)[C@@H](Cc1c[nH]c2ccccc12)C(=O)N[C@@H](CCC(=O)O)C(=O)NC(C)(CO)C(=O)N[C@H](C(=O)N[C@@H](CC(C)C)C(=O)N[C@@H](CC(=O)O)C(=O)N[C@@H](CCC(=O)O)C(=O)N[C@@H](Cc1c[nH]cn1)C(=O)NC(C)(C(=O)N[C@@H](CCC(N)=O)C(=O)N[C@@H](CCCNC(=N)N)C(=O)N[C@H](C(=O)N[C@@H](Cc1c[nH]c2ccccc12)C(=O)NCC(=O)O)C(C)C)C(C)C)[C@@H](C)CC (stereo partly drawn) [compound 390] (Stearoyl-W[NMeW]E[ξαMeS]ILDEH[ξαMeV]QRVWG-OH)	4.7			7.5 to 15	
CCCCCCCCCCCCCCCCCC(=O)NCCC(=O)N[C@@H](Cc1c[nH]c2ccccc12)C(=O)N(C)[C@@H](Cc1c[nH]c2ccccc12)C(=O)N[C@@H](CCC(=O)O)C(=O)NC(C)(CO)C(=O)N[C@H](C(=O)N[C@@H](CC(C)C)C(=O)N[C@@H](CC(=O)O)C(=O)N[C@@H](CCC(=O)O)C(=O)N[C@@H](Cc1c[nH]cn1)C(=O)NC(C)(C(=O)N[C@@H](CCC(N)=O)C(=O)N[C@@H](CCCNC(=N)N)C(=O)N[C@H](C(=O)N[C@@H](Cc1c[nH]c2ccccc12)C(=O)NCC(=O)O)C(C)C)C(C)C)[C@@H](C)CC (stereo partly drawn) [compound 391] ({Stearoyl-βAla}-W[NMeW]E[ξαMeS]ILDEH[ξαMeV]QRVWG-OH)	4.8			< 7.5	
CCCCCCCCCCCCCCCCCC(=O)NCCCC(=O)N[C@@H](Cc1c[nH]c2ccccc12)C(=O)N(C)[C@@H](Cc1c[nH]c2ccccc12)C(=O)N[C@@H](CCC(=O)O)C(=O)NC(C)(CO)C(=O)N[C@H](C(=O)N[C@@H](CC(C)C)C(=O)N[C@@H](CC(=O)O)C(=O)N[C@@H](CCC(=O)O)C(=O)N[C@@H](Cc1c[nH]cn1)C(=O)NC(C)(C(=O)N[C@@H](CCC(N)=O)C(=O)N[C@@H](CCCNC(=N)N)C(=O)N[C@H](C(=O)N[C@@H](Cc1c[nH]c2ccccc12)C(=O)O)C(C)C)C(C)C)[C@@H](C)CC (stereo partly drawn) [compound 395] ({Stearoyl-GABA}-W[NMeW]E[ξαMeS]ILDEH[ξαMeV]QRVW-OH)	6.8			7.5 to 15	
CC[C@H](C)[C@@H]1NC(=O)[C@@H](NC(=O)[C@H](CCC(N)=O)NC(=O)[C@H](C)N(C)C(=O)[C@H](Cc2c[nH]c3ccccc23)NC(=O)CCC(=O)O)CCCCNC(=O)CC[C@@H](C(=O)N[C@@H](Cc2c[nH]cn2)C(=O)N[C@H](C(=O)N[C@@H](CCC(N)=O)C(=O)N[C@@H](CCCNC(=N)N)C(=O)N[C@H](C(=O)N[C@@H](Cc2c[nH]c3ccccc23)C(=O)NCC(N)=O)C(C)C)C2CCCCC2)NC(=O)[C@H](CC(=O)O)NC(=O)[C@H](CC(C)C)NC1=O [compound 405] (HELM PEPTIDE1{[O=C(O)CCC(=O)[*:2]].W.[meA].Q.K.I.L.D.E.H.[O=C([C@@H](N[*:1])C1CCCCC1)[*:2]].Q.R.V.W.G.[am]}$PEPTIDE1,PEPTIDE1,5:R3-9:R3$$$V2.0)	26.8	0.7	< 0.4	15 to 22.5	
Lauroyl-NH-W-NMeA-QK*ILDE*H-Chg-E*DVWK*-NH2 (WAQKILDEHGEDVWK; HELM PEPTIDE1{[CCCCCCCCCCCC(=O)[*:2]].W.[meA].Q.K.I.L.D.E.H.[O=C([C@@H](N[*:1])C1CCCCC1)[*:2]].E.D.V.W.K.[am]}$PEPTIDE1,PEPTIDE1,12:R3-16:R3|PEPTIDE1,PEPTIDE1,5:R3-9:R3$$$V2.0; SMILES CCCCCCCCCCCC(=O)N[C@@H](Cc1c[nH]c2ccccc12)C(=O)N(C)[C@@H](C)C(=O)N[C@@H](CCC(N)=O)C(=O)N[C@H]1CCCCNC(=O)CC[C@@H](C(=O)N[C@@H](Cc2c[nH]cn2)C(=O)N[C@H](C(=O)N[C@H]2CCC(=O)NCCCC[C@@H](C(N)=O)NC(=O)[C@H](Cc3c[nH]c4ccccc34)NC(=O)[C@H](C(C)C)NC(=O)[C@H](CC(=O)O)NC2=O)C2CCCCC2)NC(=O)[C@H](CC(=O)O)NC(=O)[C@H](CC(C)C)NC(=O)[C@H]([C@@H](C)CC)NC1=O; listed as Homo sapiens) [SEQ ID NO: 465]					Cell growth / viability (mouse EMS lesion cells): inhibited cell growth
